In data set [1] the target is misfolding-specific SOD1 antibody (Mis-SOD1 Ab). Nature of the data set: dot blot assay, band intensity quantified with Image J. The settings on record: normalised to Con, read off a plot.
Data set [2] addresses pan-SOD1 antibody (Pan-SOD1 Ab). The data set is described as above. The following applies: normalised to Con, read off a plot.
In another data set the test system is ALS. The following applies: cited from earlier work.
Data set [3] in a line: BBB-PAMPA (parallel artificial membrane permeability assay). The following applies: for recovery at 4 h, 10 µM: PAMPA. The source says: Next, we checked the basic in vitro ADME test including pharmacokinetics, plasma protein binding, CYP (Cytochrome P450) inhibition, metabolic stability and blood–brain barrier (BBB) permeability. […] We also plan to test safety panel assay in the future to obtain safety data for the drug.
Fig. S8. […]
Background: In PAMPA a lipid-coated filter parts donor from acceptor wells.

The test system of a further data set is SOD1^G93A−Tg mice. Also noted: method as in PMID 34912047. The settings on record: cited from earlier work.
Data set [4] in a line: Pharmacokinetics in mice (compound screening, IV/PO). In kind it is in vivo, mouse. On the procedure:
Fig. S1. Optimized inhibitor reduces SOD1 aggregation. a, Mutant SOD1s induced WT-SOD1 aggregation. Testing the selected chemicals to check the inhibitory effect on SOD1 aggregation .HEK293 cells were transfected with MT-SOD1 vectors (A4V, G 93 A) and treated with selected chemicals (5 mM). After incubation, transfected cells were harvested with TNNI buffer and fixed with 0.04% glutaraldehyde (Glu) for 30min. Samples were separated using SDS-PAGE. b-c, PRG-A-04 inhibited SOD1 inclusions in SK-N-SH cells. (b) Cells expressing MT-SOD1 vectors were treated with PRG-A-04 ([…]) for 24 hr. After incubation, cells were fixed with 4 % PFA and observed under the fluorescence microscope. (c) Cells with SOD1 inclusions (white arrows; strong intensity of SOD1) were counted by photomicrographs and the percentages were shown with standard deviation (SD). For cell counting, ten fluorescence images were randomly selected. Counting of cells were performed by three independent observers, who were blinded to transfection or chemical treatment group; two-tailed Student’s t-test. NS; Not significant, ****P < 0.001, d, PRG-A- […]
degradationin blood as well as gastro-intestinal tract.IV; intravenous injected group, PO; Per Os administrated group e, […]
show cytotoxicity. To know the toxic effect of PRG-A-04 , human normal fibroblast (f) and neuron cells (g) were incubated with PRG -A-04 for 48 hr dose dependently and measured the viability through MTT assay .“Con” means Dimethyl sulfoxide (DMSO) -treated control . The data are normalized to DMSO-treated cells. n=3 independent experiments; two-tailed Student’s t-test.NS; Not significant, *P < 0.05, **P < 0.01, ***P < 0.005.

The next data set relates to WT-WT SOD1 interaction. Also on record: method as in PMID 34912047. The following applies: cited from earlier work.
The subject of the next data set is MT-SOD1 protein uptake. Nature of the data set: SOD1 recombinant protein uptake into neuronal cells. It counts as cell-based. The settings on record: SH-SY5Y cells, Dynasore 50 mM (so in the source), 6 hr. The method, then: For monitoring the localization of SOD1 recombinant proteins, SOD1-Halo proteins were added in neuronal cultures for 2 h and then the cells were incubated with the cell-permeable HaloTag-fluorscent ligands (diAcFAM) for 30 min. After incubation, cells were washed with serum-free culture medium three times and incubated in serum-containing culture medium in a CO2 incubator for 30 min to wash out unbound ligand. Fluorescent images of live cells were obtained using a commercial Tomocube HT-2H holotomography system (Daejeon, Republic of Korea).
We hypothesized that PRG-A-04, which targets trimeric SOD1, would inhibit SOD1 protein uptake. MT-SOD1 proteins were incubated with PRG-A-04 in vitro, and then cells were treated with the mixture. The MT-SOD1 protein uptake was reduced by incubation with PRG-A-04, as was SOD1 oligomerization (Fig. 3f, g). […] However, whether neuron-specific receptors on synapses, physiological conditions (neuronal cellular stress such as ion deficiency, environmental conditions such as hypoxia) and other ALS-related genetic causes (TDP-43, FUS, etc.) are essential for SOD1 uptake requires further study.
Fig. S3 SOD1 protein uptake into the cells through endocytosis. a, The uptake of SOD1 proteins was achieved by endocytosis. SH-SY5Y cells were treated with SOD1 recombinant proteins and endocytosis inhibitor (Dynasore; […]) for 6hr. After incubations, cells were harvested with RIPA and separated by SDS-PAGE. S.E: short exposure, L.E: long exposure. b, The recombinant MT-SOD1 protein is located intracellular space in neuron cells. SOD1-Halo proteins (3 μg/ml) were treated in neuron cells for 2 hr and incubated with HaloTag-fluorscent ligands (cellpermeable ligands; diAcFAM) for 30 min. After incubation, cells were washed with fresh culture medium three times and.
Incubate cells in complete culture medium at CO2 incubator for 30 min to wash unbound ligand. The fluorescence images of live cells were obtained using a commercial holotomography (HT-2H). White arrows indicate the intensity of SOD1. BF; Bright field, Scale bar; […].

The mark [5] stands for this setting: Con (no PRG-A-04), Mis-SOD1 signal over Pan-SOD1 signal.
The mark [6] stands for this setting: PRG-A-04 treated, Mis-SOD1 signal over Pan-SOD1 signal.

This is an account of results in publication PMC12067741, “Inhibition of SOD1 trimerization is a novel drug target for ALS disease” (Translational Neurodegeneration, 2025).

A value given as a limit tells only on which side of the number the result lay.

WT-SOD1 (wild-type SOD1) expressed in transfected cells (from UniProt P00441) G93A, sequence (P00441 whole entry, looked up, stated change not applied): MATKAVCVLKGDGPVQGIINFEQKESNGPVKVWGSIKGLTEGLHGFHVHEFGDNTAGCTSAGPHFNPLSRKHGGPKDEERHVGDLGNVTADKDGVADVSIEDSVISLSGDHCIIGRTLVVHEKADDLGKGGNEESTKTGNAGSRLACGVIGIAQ
WT-SOD1 (wild-type SOD1) expressed in transfected cells (from UniProt P00441) G85R, sequence (P00441 whole entry, looked up, stated change not applied): as above

On to “WT-SOD1 (wild-type SOD1) expressed in transfected cells (from UniProt P00441) G85R”, for which the response came out at 1 A.U in data set [1] (setting [5]); 1 A.U in data set [1] (Con (no PRG-A-04)); 0.42 A.U in data set [1] (setting [6]); 0.53 A.U in data set [1] (PRG-A-04 treated); 1 A.U in data set [2] (Con (no PRG-A-04)); 1.3 A.U in data set [2] (PRG-A-04 treated).
With Tofersen, in the data set on ALS (SOD1-ALS patients), the “effect on functional decline in clinical trials” value was “failed to improve functional decline”.
In the case of `CC(C)NCC(O)COc1cccc2ccccc12` (stereo not shown) [Propranolol], in data set [3] (BBB-PAMPA, test concentration 10 µM, incubation 4 hour), the “Mean Pe” value was determined as 7.66 ×10⁻⁶ cm/s. Besides, the Permeability entry in data set [3] (BBB-PAMPA, test concentration 10 µM, incubation 4 hour, class in words) was “High”. Moreover, the recovery at 4 h, 10 µM in data set [3] came out at 82.4%.
For `COc1cc(C=CC(=O)OC2Cc3cc4ccc(=O)oc4cc3OC2(C)C)ccc1O` (stereo not shown) [PRG-A-01], in the data set with SOD1^G93A−Tg mice, the “extension of lifespan of SOD1G93A-Tg mice” value is on record as “about 10 days”. Moreover, in data set [4] (in vivo), the “bioavailability” value was “poorly bioavailable”. For the same compound, in data set [4] (pharmacokinetics analysis, IV and PO groups (Fig. S1d)), the “degradation in blood as well as gastro-intestinal tract” value was “rapid”. Besides, in the data set on WT-WT SOD1 interaction, the “effect on WT-WT SOD1 interaction” value is “did not show inhibitory effects”.
In the case of `Nc1nc2ccc(OC(F)(F)F)cc2s1` [riluzole], the “efficacy on ALS progression” value in the data set with ALS is on record as “efficacy in delaying ALS progression”.
As for `O=C(N/N=C/c1ccc(O)c(O)c1)c1cc2ccccc2cc1O` [Dynasore, reference compound], the “effect on SOD1 protein uptake” value in the data set with MT-SOD1 protein uptake is on record as “inhibited”.
Turning to `CC1=NN(c2ccccc2)C(=O)C1` [radicava], in the data set on ALS, the “efficacy on ALS progression” value is given as “efficacy in delaying ALS progression” and the “efficacy on survival rate” value is recorded as “no efficacy on survival rate”.
Consider `CC(C)NCC(O)COc1ccc(CC(N)=O)cc1` (stereo not shown) [Atenolol], for which the recovery at 4 h, 10 µM in data set [3] was below 109%.
On to “WT-SOD1 (wild-type SOD1) expressed in transfected cells (from UniProt P00441) G93A”, for which the response in data set [1] (setting [5]) is 1 A.U; in data set [1] (Con (no PRG-A-04)) it was 1 A.U; in data set [1] (setting [6]), 0.25 A.U; in data set [1] (PRG-A-04 treated), 0.2 A.U; in data set [2] (Con (no PRG-A-04)), 1 A.U; in data set [2] (PRG-A-04 treated), 0.77 A.U.
